According to patent publication US20170360791A1, “PHARMACEUTICAL COMPOSITIONS FOR INCREASING THE BIOAVAILABILITY OF POORLY SOLUBLE DRUGS” (ASTEX PHARMACEUTICALS, INC., priority 2014, published 2017):
Structures can show the parent of a compound that is named as a salt. Where two headings read alike, the source gives them in different places.

Key:
[1] = format: physicochemical
Experimental: The suspensions were filtered through 0.2 or 0.45 microm filters prior to HPLC analysis. Some filtrates were diluted with MeOH prior to the HPLC analysis.

[2] = MP470.HCl in T/C with or without Soluplus in SIF; format: physicochemical; details: Soluplus (12.3%) added to MP470.HCl in T/C, versus control without Soluplus; SIF 37° C., 1 mg/mL MP470 (total); FIG. 4
Experimental: A sample of the formulation was mixed with SIF solution pre-warmed at 37° C. to make a 1 mg/mL MP470 (total) mix.

- solubility ([1]; Capryol 90, oil or lipid, thermodynamic from solid, solvent Capryol 90, room temperature, >24 hours, read-out: Solubility): 100 µg/mL
- solubility ([1]; Cremophor EL, organic solvent or mixture, thermodynamic from solid, solvent Cremophor EL, room temperature, >24 hours, read-out: Solubility): 7000 µg/mL
- solubility ([1]; DMF, organic solvent or mixture, thermodynamic from solid, solvent DMF, room temperature, >24 hours, read-out: Solubility): 10000 µg/mL
- solubility ([1]; Labrafac CC, oil or lipid, thermodynamic from solid, solvent Labrafac CC, room temperature, >24 hours, read-out: Solubility): 50 µg/mL
- solubility ([1]; Labrafil M1944CS, oil or lipid, thermodynamic from solid, solvent Labrafil M1944CS, room temperature, >24 hours, read-out: Solubility): 300 µg/mL
- solubility ([1]; Lauroglycol 90, oil or lipid, thermodynamic from solid, solvent Lauroglycol 90, room temperature, >24 hours, read-out: Solubility): 60 µg/mL
- solubility ([1]; Maisine 35-1, oil or lipid, thermodynamic from solid, solvent Maisine 35-1, room temperature, >24 hours, read-out: Solubility): 1400 µg/mL
- solubility ([1]; Miglyol 812N, oil or lipid, thermodynamic from solid, solvent Miglyol 812N, room temperature, >24 hours, read-out: Solubility): 30 µg/mL
- solubility ([1]; Miglyol 829, oil or lipid, thermodynamic from solid, solvent Miglyol 829, room temperature, >24 hours, read-out: Solubility): 100 µg/mL
- solubility ([1]; Miglyol 840, oil or lipid, thermodynamic from solid, solvent Miglyol 840, room temperature, >24 hours, read-out: Solubility): 40 µg/mL
- solubility ([1]; Peceol, oil or lipid, thermodynamic from solid, solvent Peceol, room temperature, >24 hours, read-out: Solubility): 200 µg/mL
- solubility ([1]; Solutol HS 15, aqueous with cosolvent or surfactant or cyclodextrin, thermodynamic from solid, solvent Solutol HS 15, estimated by diluting the mixture in water 1/100 and then assaying the dilution, read-out: Solubility): 6000 µg/mL
- solubility ([1]; TPGS, aqueous with cosolvent or surfactant or cyclodextrin, thermodynamic from solid, solvent TPGS, estimated by diluting the mixture in water 1/100 and then assaying the dilution, read-out: Solubility): 7000 µg/mL
- solubility ([1]; benzyl acetate, organic solvent or mixture, thermodynamic from solid, solvent Benzyl acetate, room temperature, >24 hours, read-out: Solubility): 400 µg/mL
- solubility ([1]; benzyl alcohol, organic solvent or mixture, thermodynamic from solid, solvent Benzyl alcohol, room temperature, >24 hours, read-out: Solubility): 48000 µg/mL
- solubility ([1]; canola oil, oil or lipid, thermodynamic from solid, solvent Canola oil, room temperature, >24 hours, read-out: Solubility): 10 µg/mL
- solubility ([1]; castor oil, oil or lipid, thermodynamic from solid, solvent Castor oil, room temperature, >24 hours, read-out: Solubility): 200 µg/mL
- solubility ([1]; clove oil, oil or lipid, thermodynamic from solid, solvent Clove oil, room temperature, >24 hours, read-out: Solubility): 6700 µg/mL
- solubility ([1]; corn oil, oil or lipid, thermodynamic from solid, solvent Corn oil, room temperature, >24 hours, read-out: Solubility): 10 µg/mL
- solubility ([1]; dichloromethane, organic solvent or mixture, thermodynamic from solid, solvent Dichloromethane, room temperature, >24 hours, read-out: Solubility): 400 µg/mL
- solubility ([1]; ethyl acetate, organic solvent or mixture, thermodynamic from solid, solvent Ethyl acetate, room temperature, >24 hours, read-out: Solubility): 50 µg/mL
- solubility ([1]; peanut oil, oil or lipid, thermodynamic from solid, solvent Peanut oil, room temperature, >24 hours, read-out: Solubility): 10 µg/mL
- solubility ([1]; sesame oil, oil or lipid, thermodynamic from solid, solvent Sesame oil, room temperature, >24 hours, read-out: Solubility): 30 µg/mL
- solubility ([1]; solvent Acetic acid, room temperature, >24 hours, HCl): 3000 µg/mL
- solubility ([1]; solvent Acetone, room temperature, >24 hours, HCl): 200 µg/mL
- solubility ([1]; solvent DMA, room temperature, >24 hours, HCl): 13000 µg/mL
- solubility ([1]; solvent DMSO, room temperature, >24 hours, HCl): 18000 µg/mL
- solubility ([1]; solvent Glycerin, room temperature, >24 hours, HCl): 4000 µg/mL
- solubility ([1]; solvent Labrasol, room temperature, >24 hours, HCl): 3000 µg/mL
- solubility ([1]; solvent Methanol, room temperature, >24 hours, HCl): 3000 µg/mL
- solubility ([1]; solvent NMP, room temperature, >24 hours, HCl): 40000 to 80000 µg/mL
- solubility ([1]; solvent PEG400, room temperature, >24 hours, HCl): 2000 µg/mL
- solubility ([1]; solvent Phosal 50 PG, room temperature, >24 hours, HCl): 15000 µg/mL
- solubility ([1]; solvent Propylene glycol, room temperature, >24 hours, HCl): 4000 µg/mL
- solubility ([1]; solvent Triacetin, room temperature, >24 hours, HCl): 800 µg/mL
- solubility ([1]; solvent Tween 20, room temperature, >24 hours, HCl): 17000 µg/mL
- solubility ([1]; solvent Tween 80, room temperature, >24 hours, HCl): 4500 µg/mL
- solubility ([1]; tocopherol, oil or lipid, thermodynamic from solid, solvent Tocopherol, room temperature, >24 hours, read-out: Solubility): 800 µg/mL
- MP470 solubility enhancement [2]: ~10 fold
SMILES: S=C(NCc1ccc2c(c1)OCO2)N1CCN(c2ncnc3c2oc2ccccc23)CC1 [MP470.HCl, amuvatinib HCl]
